Laboratory results: patent US4794114A, “Inhibition of interleukin-1 production by monocytes and/or macrophages” (SmithKline Beckman Corporation, priority 1987, dated 1988)
Like-named read-outs stand apart in the source and are kept apart here.

Legend:
[1] = test system: adjuvant-induced arthritis in the rat; experiment: adjuvant-induced arthritis in the rat: right leg paw edema; format: in vivo; conditions: mg/kg: Compound 1 60, indomethacin 2.0, prednisolone 10, methotrexate 0.3, D-penicillamine 50
Protocol: (§1) Adjuvant-induced arthritis in the rat is a model of systemic inflammation with characteristics similar to rheumatoid arthritis in man. […] This model was employed to assess the effect of Compound 1 in vivo on this elevated IL-1 production. Briefly, rats were injected on day 0 with Freund's complete adjuvant in the right hind leg. Drugs were prepared as a suspension in tragacanth and administered daily per os either prophylactically (days 1 to 16) or therapeutically in a short-term modality (days 14 to 16). In all cases, final administration of drug occurred at 3 hours prior to sacrifice. Spleens were removed from these rats and the adherent cells were assessed for their ability to produce IL-1 in vitro in response to stimulation by LPS.
(§2) PROPHYLACTIC TREATMENT: Drugs were administered daily p.o. as a suspensio
(§3) in tragacanth from day 1 to day 16. Final dose given 3 hrs before
(§4) TREATMENT: Drugs were administered daily p.o. as above from
(§5) day 14 to day 16. Final dose given 3 hrs before sacrifice.
(§6) ***P < 0.01 Indomethacin 2.0 mg/kg
(§7) **P < 0.05 Compound 1 60 mg/kg
(§8) *P < 0.10 Prednisolone 10 mg/kg
(§9) D-Penicillamine 50 mg/kg

alpha interferon = alpha interferon (other inducible proteins) production; format: cell-based
EL-4/CTLL assay = experiment: direct effect on IL-1 standard in EL-4/CTLL readout assay; format: cell-based
Protocol: (§10) Bacterial lipopolysaccharide (LPS) was used to induce IL-1 production by human peripheral blood monocytes. IL-1 activity was measured by its ability to stimulate a Interleukin 2 (IL-2) producing cell line (EL-4) to secrete IL-2, in concert with A23187 ionophore, according to the method of Simon et al., J. Immunol. Methods, 84, 85, (1985). Human peripheral blood monocytes were isolated and purified from either fresh blood preparations from volunteer donors, or from blood Bank buffy coats, according to the procedure of Colotta et al., J. Immunol., 132, 936 (1984). 1×10^6 of such monocytes are plated in 24-well plates at a concentration of 2 million/ml per well. The cells were allowed to adhere for 2 hours, after which time non-adherent cells were removed by gentle washing. Test compounds were then added to the cells for 1 hour (hr) before the addition of lipopolysaccharide (10 ng/ml unless otherwise noted), and the cultures were incubated at 37° C. for an additional 24 hours. At the end of the incubation period, culture supernatants were removed and clarified of cells and all debris. Culture supernatants were immediately assayed for IL-1 biological activity as well as prostaglandin and/or leukotriene concentrations by radioimmunoassay.
Inhibition of IL-1 production by Compound 1 is not due to a carryover effect of the drug on the cells sed in the IL-1 readout assay. […]

[2] = test system: IL-1 production by human monocytes; experiment: in vitro IL-1 production by LPS-stimulated human peripheral blood monocytes (EL-4 readout); format: cell-based; conditions: for inhibition at 1 µM: 10^-6 M; for inhibition at 0.1 µM: 10^-7 M
Protocol: The effects of antiinflammatory/antiarthritic drugs of different classes, including Compound 1 on the in vitro production of IL-1 by human monocytes was examined.
as §10
^(a) All compounds, except chloroquine, were dissolved in absolute
ethanol at 10^-2 M, which was subsequently diluted further in tissue
assay system at doses tested. Furthermore, test samples were dialyzed
prior to testing in the IL1 assay.
In order to elucidate the mechanism by which Compound 1 mediates its anti-inflammatory activity, the ability of this compound and two closely related analog metabolites, (i.e., the analogs of Compound 1 wherein X is S(0)n and n is 1 or 2) to inhibit human IL-1 production in vitro was evaluated according to the method of Example 1. Briefly, 1×10^6 human peripheral blood monocytes were plated in 24-well plates and allowed to adhere for 1 hr at 37° C. The above compounds were added to a final concentration of 10^-5 M to 10^-8 M. The monocytes were stimulated to produce IL-1 with 1 ng/ml LPS after a 1 hr pretreatment of the cells with the respective compounds.
The inhibitory effect of additional compounds of Formula (I) on the in vitro production of IL-1 production of IL-1 by human monocytes was determined according to the procedure of Examples 1 and 2.

IL-2 = IL-2 production or response; format: cell-based
PGE2 = experiment: in vitro prostaglandin (PGE2) synthesis by LPS-stimulated human monocytes, RIA; format: cell-based
Protocol: as §10
^(c) PGE2 was assayed using an RIA kit.

[3] = test system: endotoxin shock in C57B1/6 mice; format: in vivo, mouse; conditions: mouse, in vivo
Protocol: Mice are very resistant to the lethal effects of bacterial lipopolysaccharides (LPS). D-Galactosamine (D-GALN) induces a high degree of sensitization to the lethal effects of LPS in mice and other experimental animals. [See, Galanos et al., Proc. Natl. Acad Sci. USA., 76, 5939 (1979)]. In mice, depending on the strain and age, the sensitivity to endotoxin can be increased many thousand-fold.
A number of preliminary experiments were carried out to establish this model of lethal endotoxin shock.

A375 melanoma cells = experiment: tumoricidal activity of LPS-treated human monocytes in the kill of A375 melanoma cells; format: cell-based; conditions: 10^-5 to 10^-8 M
[4] = test system: IL-1 production by splenic adherent cells; experiment: adjuvant-induced arthritis in the rat: IL-1 production by LPS-stimulated splenic adherent cells; format: in vivo; conditions: for IL-1 Production (splenic adherent cells), % normal control: mg/kg: Compound 1 60, indomethacin 2.0, prednisolone 10, methotrexate 0.3, D-penicillamine 50
Protocol: as §1, §2, §3, §4, §5, §6, §7, §8, §9

[5] = test system: human peripheral blood lymphocytes; experiment: lectin-stimulated mitogenesis of human peripheral blood lymphocytes; format: cell-based
splenic adherent cells = experiment: adjuvant-induced arthritis in the rat: % splenic adherent cells; format: in vivo; conditions: mg/kg: Compound 1 60, indomethacin 2.0, prednisolone 10, methotrexate 0.3, D-penicillamine 50
Protocol: as §1, §2, §3, §4, §5, §6, §7, §8, §9

monocytes = experiment: in vitro; format: cell-based, human
Protocol: as §10
^(b) At doses at or above 10^-5 M, this compound exerted some

[6] = prophylactic, daily p.o. days 1-16
[7] = therapeutic, daily p.o. days 14-16
[8] = Homo sapiens, Monocyte, wide range of LPS, read-out: inhibition of IL-1 production
[9] = Homo sapiens, Monocyte, read-out: % Inhibition IL-1

Fc1ccc(-c2nc3n(c2-c2ccncc2)CCS3)cc1 [Compound 1]
Right leg paw edema, % normal control [1, 6]: 134 ± 9 % normal control | Right leg paw edema, % normal control [1, 7]: 159 ± 7 % normal control | effect on other inducible proteins such as alpha interferon (alpha interferon): not effected | effect on the IL-1 assay system (EL-4/CTLL assay; 10^-5 or higher): had an effect on the assay system | direct effect on the IL-1 assay (EL-4/CTLL assay; lower doses / doses tested): no direct effect on the IL-1 assay | dose dependence of IL-1 production inhibition [2]: dose dependent | inhibition of IL-1 production [2]: inhibits IL-1 production | relative potency against the two analogs ([2]; 1 ng/ml LPS): slightly more potent than the two analogs tested | IC50 ([2]; Homo sapiens, Monocyte, 1 ng/ml LPS, 1 hr pretreatment): 250 nM | inhibition at 10 µM ([2]; Homo sapiens, Monocyte, 10^-5 M, read-out: % Inhibition IL-1): 99% | inhibition at 1 µM [2, 8]: ~80% | inhibition at 1 µM ([2]; Homo sapiens, Monocyte, Table 3, read-out: % Inhibition @ 10^-6 M): 70% | inhibition at 1 µM [2, 9]: 96% | inhibition at 0.1 µM [2, 8]: ~40% | inhibition at 0.1 µM [2, 9]: 88% | inhibition of IL-1 production ([2]; submicromolar range (10^-7 M)): greater than 80% | inhibition of IL-1 production induced by a variety of activators ([2]; variety of activators): inhibits IL-1 production induced by a variety of activators | inhibition of IL-2 production (IL-2; IL-2 production): does not inhibit either IL-2 production or response | inhibition of IL-2 response (IL-2; IL-2 response): does not inhibit either IL-2 production or response | inhibition at 10 µM (PGE2; Homo sapiens, Monocyte, 10^-5 M, read-out: % Inhibition PGE2): 99% | inhibition at 1 µM (PGE2; Homo sapiens, Monocyte, 10^-6 M, read-out: % Inhibition PGE2): 94% | inhibition at 0.1 µM (PGE2; Homo sapiens, Monocyte, 10^-7 M, read-out: % Inhibition PGE2): 79% | inhibition of prostaglandin synthesis (PGE2; submicromolar range (10^-7 M)): greater than 80% | immunosuppressive effect (immunosuppressive effect): not immunosuppressive | protection from lethal effects of LPS/GALN [3]: protected the animals from the lethal effects of LPS/GALN | effect on monocyte tumoricidal activity (A375 melanoma cells): did not effect that biological activity | decrease in IL-1 production ([4]; prophylactic administration): more dramatic decrease in IL-1 production than indomethacin which resulted in nearly complete normalization of this parameter | IL-1 Production (splenic adherent cells), % normal control [4, 6]: 139 ± 28 % normal control | IL-1 Production (splenic adherent cells), % normal control [4, 7]: 392 ± 129 % normal control | effect in adjuvant arthritic rats ([4]; therapeutic, short-term treatment): no effect | inhibition of lectin-stimulated mitogenesis [5]: does not inhibit lectin-stimulated mitogenesis | % Adherent Cells (splenic), % normal control (splenic adherent cells; [6]): 98 ± 29 % normal control | % Adherent Cells (splenic), % normal control (splenic adherent cells; [7]): 216 ± 137 % normal control | nonspecific toxic effect on other functions of activated monocytes (monocytes): does not exert a nonspecific toxic effect on other functions of activated monocytes
